The experiment has as its target T1, GLUT3 (Homo sapiens, UniProt P11169).
T1 construct: expressed in transfected cells; host or cells: Saccharomyces cerevisiae hxt0 strain EBY.S7 (fgy1)
T1 sequence (P11169 1-496): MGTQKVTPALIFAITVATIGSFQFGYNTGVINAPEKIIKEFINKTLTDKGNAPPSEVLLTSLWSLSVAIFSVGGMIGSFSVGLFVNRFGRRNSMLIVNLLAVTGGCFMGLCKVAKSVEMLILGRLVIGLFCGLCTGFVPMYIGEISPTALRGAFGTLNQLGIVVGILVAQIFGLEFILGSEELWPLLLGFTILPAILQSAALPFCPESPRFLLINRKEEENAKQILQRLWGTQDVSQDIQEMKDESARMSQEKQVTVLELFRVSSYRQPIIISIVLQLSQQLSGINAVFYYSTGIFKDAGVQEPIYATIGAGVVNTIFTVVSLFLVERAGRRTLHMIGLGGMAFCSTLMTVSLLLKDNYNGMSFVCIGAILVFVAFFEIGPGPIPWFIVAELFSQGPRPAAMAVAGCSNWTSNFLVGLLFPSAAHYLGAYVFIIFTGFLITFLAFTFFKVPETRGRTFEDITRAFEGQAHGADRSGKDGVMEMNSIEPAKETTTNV
Description: Glucose transport assay, wild-type GLUT3 expressed in hxt^0 yeast cells EBY.S7 (C^14-glucose uptake). It counts as cell-based. The conditions noted are these: wild-type GLUT3 in hxt^0 yeast cells, 3 mM glucose, uptake 10 min; read-out: IC50 for GLUT3 transport inhibition. The text has this:
To experimentally validate the ligand candidates determined by the virtual ligand screening, we tested their effect on GLUT3 transport activity. For this, we used the recently established assay system[67] in which GLUT3 is expressed in a yeast strain devoid of endogenous hexose transporters (hxt^0) so that glucose uptake into cells relies solely on the activity of GLUT3.
We determined GLUT3 transport activity by measuring the accumulation of radioactive glucose inside whole hxt^0 yeast cells (see “Materials and methods” for details). To select an appropriate substrate concentration for transport inhibition screening, we assessed the KM of glucose for GLUT3 in hxt^0 cells. […] Indeed, functional expression of human GLUTs in hxt^0 cells often requires mutations in genes related to yeast lipid composition[65],[73] as well as single-site mutations that may favor the outward-facing conformation of the transporters[65]–[67].
Hexose transporter deficient yeast strains (hxt^0) EBY.VW4000 for expression of GLUT5, EBY.S7 (carrying the fgy1 mutation) for expression of GLUT1-3, and SDY.022 (EBY.S7 Δerg4) for expression of GLUT4 cells, and corresponding plasmids[65],[66],[73] were from the labs of Drs. Eckhard Boles and Mislav Oreb (Goethe University, Germany). Media ingredients and buffer components were from VWR or Millipore Sigma. Commercial providers for chemicals tested for GLUT3 inhibition are listed in Supplementary Table S1. C^14-glucose was from Moravek Inc (Brea, CA, USA). Cancer cell lines were from ATCC (https://www.atcc.org).
The plasmids containing functional constructs of GLUT1-5 were transformed in the corresponding hxt^0 strains[65],[66],[73] (EBY.VW4000 for GLUT5S72Y, EBY.S7 for GLUT1, GLUT2∆loopS_Q455R, GLUT3 and GLUT3S66Y, and SDY.022 for GLUT4) and grown on 2% (w/v) agar plates of the respective media supplemented with 1% (w/v) maltose. An initial culture of ~ 10 ml was started with a few colonies and grown for 2–3 days if the media was SC-uracil with 1% (w/v) maltose (GLUT1, GLUT3, GLUT4) or 1–2 days if the media was YEP with 1% (w/v) maltose and 100 µg/ml geneticin G418 (GLUT2∆loopS_Q455R and GLUT5S72Y). Cells were washed once in the corresponding media in which maltose was substituted with 0.1–2% hexose substrate for the expressing GLUT (i.e., SC-uracil, 2% (w/v) glucose for GLUT1; SC-uracil, 0.2% (w/v/) glucose for GLUT3 and GLUT4; YEP, 0.2% (w/v) glucose, 100 µg/ml geneticin G418 for GLUT2∆loopS_Q455R, and YEP, 2% (w/v) fructose for GLUT5 S72Y). Then, cells were transferred in the same media so that OD600nm ~ 0.5 and grown further for 1–2 days.
For transport activity assay, cells in the hexose media were centrifuged (1000×g, 5 min, room temperature), washed once with PBS buffer (10 mM Na2HPO4, 1.8 mM KH2PO4, 2.7 mM KCl, 137 mM NaCl, pH 7.4), and resuspended in PBS buffer at an OD600nm ~ 10; each assay contained 100 µl of this cell solution. Transport activity assay was started by adding C^14-hexose at a substrate concentration corresponding to the respective KM (5 mM glucose for GLUT1 or GLUT4, 3 mM glucose for GLUT3 or 1.5 mM glucose for GLUT3S66Y, 15 mM glucose for GLUT2∆loopS_Q455R, and 10 mM fructose for GLUT5S72Y); for determining the glucose KM in GLUT3 and GLUT3S66Y, substrate concentrations were varied accordingly. […] The filtration membranes were transferred into scintillation vials with 10 ml of Scintillation Solution (BioSafeII; Research Products International, Mount Prospect, IL, USA), and vortexed briefly. The radioactivity was determined with a scintillation counter (Tri-carb 2900TR, Perkin Elmer, USA).

A word on the IC50: it is the point on the concentration scale where inhibition reaches its midpoint. On to `COc1ccccc1-n1c(/C=C/c2ccc(O)cc2)nc2ccc(Br)cc2c1=O` [G3iB, 6-bromo-2-[(E)-2-(4-hydroxyphenyl)ethenyl]-3-(2-methoxyphenyl)quinazolin-4(3H)-one], for which the IC50 amounted to 12.2 ± 4 µM. Next, `Cc1cccnc1OC1CCN(c2cc(N3CCCC3CO)ncn2)CC1` (stereo not drawn) [G3iC]: 12.5 ± 4.4 µM; `Cc1ccccc1CN(Cc1nnc(C(C)(C)C)o1)c1ccc2nc(O)[nH]c2c1` [G3iF]: 38.4 ± 11.8 µM.

Turning to `CC(=O)Nc1ccc(S(=O)(=O)Nc2ccc(Nc3cc(N(C)C)nc(C)n3)cc2)cc1` [G3iA, N-(4-{[(4-{[6-(dimethylamino)-2-methylpyrimidin-4-yl]amino}phenyl)amino]sulfonyl}phenyl)acetamide], the IC50 was determined as 7.01 ± 1.02 µM. Next, `O=C(Nc1cccc(Cl)c1)c1cccc(NC(=O)c2cccc([N+](=O)[O-])c2)c1` [G3iE, N-{3-[(3-chloroanilino)carbonyl]phenyl}-3-nitrobenzamide]: 23.6 ± 1.9 µM; `Cc1cc(NC(=O)CCC2Cc3ccccc3NC2=O)nc(-c2ccccc2)n1` (stereo not drawn) [G3iD]: 19.3 ± 4.7 µM.

For the origin of these results see paper PMC8791944, “GLUT3 inhibitor discovery through in silico ligand screening and in vivo validation in eukaryotic expression systems” (Scientific Reports, 2022).
